Reference: PMC5838249, “The Apicomplexa-specific glucosamine-6-phosphate N-acetyltransferase gene family encodes a key enzyme for glycoconjugate synthesis with potential as therapeutic target” (Scientific Reports, 2018)

Key:
[1] = target: T1, PfGNA1 (Plasmodium falciparum, UniProt C6KTC5); assay: HPLC-MS/MS GNA1 assay; assay type: biochemical; settings: 500 µM AcCoA, 500 µM GlcN-6P, 25 mM Tris-HCl, 150 mM NaCl, pH 7.2, room temperature
T1 construct: gene PF3D7_0629000; deficiently expressed
T1 sequence (C6KTC5 1-291): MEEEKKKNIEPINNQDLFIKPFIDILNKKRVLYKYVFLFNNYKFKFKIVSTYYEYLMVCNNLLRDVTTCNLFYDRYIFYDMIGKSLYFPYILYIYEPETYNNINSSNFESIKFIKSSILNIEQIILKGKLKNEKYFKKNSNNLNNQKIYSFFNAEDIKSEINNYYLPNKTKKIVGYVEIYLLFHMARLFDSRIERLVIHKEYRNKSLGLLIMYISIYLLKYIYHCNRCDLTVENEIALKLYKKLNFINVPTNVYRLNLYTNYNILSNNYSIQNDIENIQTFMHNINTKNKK

[2] = target: T2, TgGNA1 (Toxoplasma gondii, UniProt A0A7J6K6Y4); assay: HPLC-MS/MS and colorimetric GNA1 assay; assay type: biochemical; settings: […] AcCoA, […] GlcN-6P, […] Tris-HCl, […] NaCl, pH […], room temperature
T2 construct: gene TGRH88_028800
T2 sequence (A0A7J6K6Y4 1-516): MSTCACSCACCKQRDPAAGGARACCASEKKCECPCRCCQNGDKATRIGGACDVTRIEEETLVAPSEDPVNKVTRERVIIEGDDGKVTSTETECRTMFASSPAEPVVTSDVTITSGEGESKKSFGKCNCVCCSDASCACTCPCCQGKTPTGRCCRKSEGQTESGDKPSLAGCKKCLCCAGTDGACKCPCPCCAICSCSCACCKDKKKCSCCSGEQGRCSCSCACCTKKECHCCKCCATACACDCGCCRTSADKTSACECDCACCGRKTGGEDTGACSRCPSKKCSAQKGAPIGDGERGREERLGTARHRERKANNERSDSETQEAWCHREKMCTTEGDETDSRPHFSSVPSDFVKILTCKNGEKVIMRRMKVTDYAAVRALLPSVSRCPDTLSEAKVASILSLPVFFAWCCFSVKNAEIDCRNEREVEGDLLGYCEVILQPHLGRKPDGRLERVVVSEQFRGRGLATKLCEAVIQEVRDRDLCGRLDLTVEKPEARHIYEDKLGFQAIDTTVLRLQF

CC(=O)SCCNC(=O)CCNC(=O)[C@H](O)C(C)(C)COP(=O)(O)OP(=O)(O)OC[C@H]1O[C@@H](n2cnc3c(N)ncnc32)[C@H](O)[C@@H]1OP(=O)(O)O [AcCoA]
HPLC-MS/MS GNA1 assay [1]: PfGNA1 and TaGNA1 were deficiently expressed, they also showed residual activity as detected by HPLC-MS/MS | HPLC-MS/MS and colorimetric GNA1 assay [2]: The enzymes used GlcN-6P as substrate and AcCoA as donor to produce GlcNAc-6P

N[C@H]1C(O)O[C@H](COP(=O)(O)O)[C@@H](O)[C@@H]1O (stereo partly shown) [GlcN-6P]
HPLC-MS/MS GNA1 assay [1]: PfGNA1 and TaGNA1 were deficiently expressed, they also showed residual activity as detected by HPLC-MS/MS | HPLC-MS/MS and colorimetric GNA1 assay [2]: TgGNA1 distinctly acetylated GlcN-6P
